The source of these data is ChEMBL document CHEMBL5505956, “Plant-derived strategies to fight against severe acute respiratory syndrome coronavirus 2” (Eur J Med Chem, 2024).

Broadly, the EC50 is the concentration that produces a half-maximal response. As a reminder, the IC50 is the midpoint of a concentration-inhibition curve.

≈ marks a conversion by molar mass, not a printed value.

In assay [1] the test system is SARS-CoV-2. Kind of assay: Antiviral activity against SARS-CoV-2 infected in monkey Vero E6 cells assessed as inhibition of […]. It counts as functional, organism-based. The note with it: Severe acute respiratory syndrome coronavirus 2, Vero C1008.
Assay [2] relates to SARS-CoV-2. Kind of assay: Antiviral activity against SARS-CoV-2 infected in african green monkey Vero E6 cells assessed as reduction in viral replication. Type of assay: functional, organism-based. The note with it: Severe acute respiratory syndrome coronavirus 2, Vero C1008.
Assay [3] has as its system SARS-CoV-2. Kind of assay: Antiviral activity against SARS-CoV-2 infected in human Calu-3 cells assessed as reduction in viral replication incubated for 48 hrs by RT-PCR. Type of assay: functional, organism-based. The note with it: Severe acute respiratory syndrome coronavirus 2, Calu-3, 48 h.
In assay [4] the test system is SARS-CoV-2. Put plainly: Antiviral activity against SARS-CoV-2 infected in african green monkey Vero E6 cells assessed as reduction in viral growth measured for 2 days by qRT-PCR. Type of assay: functional, organism-based. The note with it: Severe acute respiratory syndrome coronavirus 2, Vero C1008, 48 h. In general terms: Real-time PCR tracks product formation cycle by cycle.

Assay [5] has as its system SARS-CoV-2. Put plainly: Antiviral activity against SARS-CoV-2 infected in human A549-ACE2 cells assessed as viral growth inhibition. Type of assay: functional, organism-based. The settings on record: Severe acute respiratory syndrome coronavirus 2, A549-ACE2.
In assay [6] the test system is SARS-CoV-2. Put plainly: Antiviral activity against SARS-CoV-2 infected in African green monkey Vero E6 cells assessed as reduction in viral replication measured after 3 days by qRT-PCR analysis. The settings on record: Severe acute respiratory syndrome coronavirus 2, Vero C1008, 72 h. It counts as functional, organism-based.
Assay [7] concerns SARS-CoV-2. Kind of assay: Antiviral activity against SARS-CoV-2 infected in African green monkey Vero E6 cells assessed as inhibition of viral growth incubated for 24 hrs by qRT-PCR analysis. The note with it: Severe acute respiratory syndrome coronavirus 2, Vero C1008, 24 h. It counts as functional, organism-based.
The target of assay [8] is Replicase polyprotein 1ab (Severe acute respiratory syndrome coronavirus 2, UniProt P0DTD1).
Description: Inhibition of SARS CoV-2 main protease

As to `O=c1c(O)c(-c2cc(O)c(O)c(O)c2)oc2cc(O)cc(O)c12` [MYRICETIN], the EC50 in the assay on SARS-CoV-2 [1] was 8 µM. As to `Cc1ccc(C(=O)Nc2ccc(S(=O)(=O)O)c3cc(S(=O)(=O)O)cc(S(=O)(=O)O)c23)cc1NC(=O)c1cccc(NC(=O)Nc2cccc(C(=O)Nc3cc(C(=O)Nc4ccc(S(=O)(=O)O)c5cc(S(=O)(=O)O)cc(S(=O)(=O)O)c45)ccc3C)c2)c1` [SURAMIN], the EC50 with SARS-CoV-2 [2] is 2.93 µM.

Consider `COc1cc(/C=C/C(=O)CC(=O)/C=C/c2ccc(O)c(OC)c2)ccc1O` [CURCUMIN], for which the EC50 in the assay with SARS-CoV-2 [3] and in the assay on SARS-CoV-2 [4] was 38 µM each time.

With `CC1(C)[C@@H](O[C@H]2O[C@H](C(=O)O)[C@@H](O)[C@H](O)[C@H]2O[C@@H]2O[C@H](C(=O)O)[C@@H](O)[C@H](O)[C@H]2O)CC[C@]2(C)[C@H]3C(=O)C=C4[C@@H]5C[C@@](C)(C(=O)O)CC[C@]5(C)CC[C@@]4(C)[C@]3(C)CC[C@@H]12` [GLYCYRRHIZIN], the EC50 with SARS-CoV-2 [5] was found to be 0.44 µg/mL (≈ 0.535 µM). Turning to `O=C(O[C@@H]1O[C@@H]2COC(=O)c3cc(O)c(O)c(O)c3-c3c(cc(O)c(O)c3O)C(=O)O[C@H]([C@H]1O)[C@@H]2O)c1cc(O)c(O)c(O)c1` [CORILAGIN], in the assay on SARS-CoV-2 [2], the EC50 is 0.13 µM.

Consider `O=C(O[C@@H]1Cc2c(O)cc(O)cc2O[C@@H]1c1cc(O)c(O)c(O)c1)c1cc(O)c(O)c(O)c1` [EPIGALOCATECHIN GALLATE], for which, in the assay on SARS-CoV-2 [6], the EC50 turned out to be 10 µM. Take `C[C@@H]1CC[C@H]2[C@@H](C)C(=O)O[C@@H]3O[C@@]4(C)CC[C@@H]1[C@]32OO4` [ARTEMISININ]: in the assay on SARS-CoV-2 [7], the EC50 was determined as 10.3 µM. In assay [8], `COc1ccc2cc1Oc1ccc(cc1)C[C@H]1c3c(cc4c(c3Oc3cc5c(cc3OC)CCN(C)[C@@H]5C2)OCO4)CCN1C` [CEPHARANTHINE] came in with a half-maximal inhibitory concentration (IC50) of 0.1 µM.
